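Five concentrations, 48 hours, 96-well plates. TGI is the concentration that stops growth completely.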
Key:
Assay in all cases: NCI-60 cell line screen, 48 h
[1] = test system: A498 renal
[2] = test system: ACHN renal
[3] = test system: BT-549 breast
[4] = test system: CAKI-1 renal
[5] = test system: CCRF-CEM leukemia
[6] = test system: EKVX NSCLC
[7] = test system: HCC-2998 colon
[8] = test system: HCT-15 colon
[9] = test system: HL-60(TB) leukemia
[10] = test system: HOP-92 NSCLC
[11] = test system: KM12 colon
[12] = test system: MDA-MB-231 breast
[13] = test system: MDA-MB-435
[14] = test system: MDA-N
[15] = test system: MOLT-4 leukemia
[16] = test system: NCI-H226 lung
[17] = test system: NCI-H23 lung
[18] = test system: NCI-H460 lung
[19] = test system: NCI/ADR-RES ovarian
[20] = test system: OVCAR-4 ovarian
[21] = test system: OVCAR-8 ovarian
[22] = test system: RPMI-8226 leukemia
[23] = test system: SF-268 CNS
[24] = test system: SK-MEL-28 melanoma
[25] = test system: SN12C renal
[26] = test system: SNB-19 CNS
[27] = test system: SNB-75 CNS
[28] = test system: SR leukemia
[29] = test system: TK-10 renal
[30] = test system: U251 CNS
[31] = test system: UACC-257 melanoma
[32] = test system: UACC-62 melanoma
[33] = test system: UO-31 renal
[34] = test system: 786-0 renal
[35] = test system: A549 NSCLC
[36] = test system: COLO 205 colon
[37] = test system: DU-145 prostate
[38] = test system: HCT-116 colon
[39] = test system: HOP-62 NSCLC
[40] = test system: HS 578T breast
[41] = test system: HT29 colon
[42] = test system: IGROV1 ovarian
[43] = test system: K-562 leukemia
[44] = test system: LOX IMVI melanoma
[45] = test system: M14 melanoma
[46] = test system: MALME-3M melanoma
[47] = test system: MCF7 breast
[48] = test system: NCI-H522 lung
[49] = test system: OVCAR-3 ovarian
[50] = test system: OVCAR-5 ovarian
[51] = test system: PC-3 prostate
[52] = test system: RXF 393 renal
[53] = test system: SF-295 CNS
[54] = test system: SF-539 CNS
[55] = test system: SK-MEL-2 melanoma
[56] = test system: SK-MEL-5 melanoma
[57] = test system: SK-OV-3 ovarian
[58] = test system: SW-620 colon
[59] = test system: T-47D breast

CC1(C)/C(=N\O)C2(OS(=O)(=O)C(F)(F)F)CCC1C2 (stereo not given)
TGI [1]: > 100 µM
TGI [2]: > 100 µM
TGI [3]: > 100 µM
TGI [4]: > 100 µM
TGI [5]: > 100 µM
TGI [6]: > 100 µM
TGI [7]: > 100 µM
TGI [8]: > 100 µM
TGI [9]: > 100 µM
TGI [10]: > 100 µM
TGI [11]: > 100 µM
TGI [12]: > 100 µM
TGI [13]: > 100 µM
TGI [14]: > 100 µM
TGI [15]: > 100 µM
TGI [16]: > 100 µM
TGI [17]: > 100 µM
TGI [18]: > 100 µM
TGI [19]: > 100 µM
TGI [20]: > 100 µM
TGI [21]: > 100 µM
TGI [22]: > 100 µM
TGI [23]: > 100 µM
TGI [24]: > 100 µM
TGI [25]: > 100 µM
TGI [26]: > 100 µM
TGI [27]: > 100 µM
TGI [28]: > 100 µM
TGI [29]: > 100 µM
TGI [30]: > 100 µM
TGI [31]: > 100 µM
TGI [32]: > 100 µM
TGI [33]: > 100 µM

CCNCC(=O)Nc1ccc2c(c1)C(=O)c1ccc(NC(=O)CNCC)cc1C2=O
TGI [34]: 7.92 µM
TGI [1]: 6.46 µM
TGI [35]: 14.6 µM
TGI [2]: 9.15 µM
TGI [4]: 29.6 µM
TGI [5]: > 100 µM
TGI [36]: 3.69 µM
TGI [37]: 11.7 µM
TGI [6]: 20.5 µM
TGI [7]: 3.75 µM
TGI [38]: 7.52 µM
TGI [8]: 8.29 µM
TGI [9]: 8.81 µM
TGI [39]: 20 µM
TGI [10]: 12.5 µM
TGI [40]: 22.1 µM
TGI [41]: 9.87 µM
TGI [42]: 19.5 µM
TGI [43]: 4.91 µM
TGI [11]: > 100 µM
TGI [44]: 6.58 µM
TGI [45]: 12.5 µM
TGI [46]: 33 µM
TGI [47]: 5.6 µM
TGI [12]: 9.88 µM
TGI [13]: 6.18 µM
TGI [14]: 18.9 µM
TGI [16]: 20 µM
TGI [17]: 14.8 µM
TGI [48]: 4.61 µM
TGI [19]: 28.3 µM
TGI [49]: 8.74 µM
TGI [20]: 2.24 µM
TGI [50]: 10.7 µM
TGI [21]: 15.1 µM
TGI [51]: > 100 µM
TGI [52]: 13.3 µM
TGI [23]: 16.6 µM
TGI [53]: 14.2 µM
TGI [54]: 16.2 µM
TGI [55]: 47.4 µM
TGI [24]: 19.2 µM
TGI [56]: 59.3 µM
TGI [57]: 9.48 µM
TGI [25]: 6.45 µM
TGI [26]: 12.1 µM
TGI [27]: 7.44 µM
TGI [58]: 12.8 µM
TGI [59]: 17.1 µM
TGI [29]: 18.7 µM
TGI [30]: 5.3 µM
TGI [31]: 18.6 µM
TGI [32]: 17.8 µM
TGI [33]: 8.9 µM

Cc1nc2ccc(Cl)cc2c2c1CCN2c1ccc(F)cc1
TGI [34]: > 100 µM
TGI [1]: 68.4 µM
TGI [35]: > 100 µM
TGI [2]: > 100 µM
TGI [4]: > 100 µM
TGI [5]: > 100 µM
TGI [36]: 56.5 µM
TGI [37]: > 100 µM
TGI [6]: > 100 µM
TGI [7]: > 100 µM
TGI [38]: > 100 µM
TGI [8]: > 100 µM
TGI [9]: 35.3 µM
TGI [39]: > 100 µM
TGI [40]: > 100 µM
TGI [41]: > 100 µM
TGI [42]: 72.7 µM
TGI [43]: > 100 µM
TGI [11]: > 100 µM
TGI [44]: 78.1 µM
TGI [45]: 51.7 µM
TGI [46]: 82 µM
TGI [47]: 59.1 µM
TGI [12]: 81.3 µM
TGI [13]: 63.6 µM
TGI [14]: > 100 µM
TGI [15]: > 100 µM
TGI [16]: 88.8 µM
TGI [17]: > 100 µM
TGI [18]: > 100 µM
TGI [48]: > 100 µM
TGI [19]: > 100 µM
TGI [49]: > 100 µM
TGI [20]: > 100 µM
TGI [50]: > 100 µM
TGI [21]: > 100 µM
TGI [51]: > 100 µM
TGI [22]: 65.1 µM
TGI [52]: 93.3 µM
TGI [23]: > 100 µM
TGI [53]: > 100 µM
TGI [54]: 54.8 µM
TGI [55]: > 100 µM
TGI [24]: 75.7 µM
TGI [56]: 21.6 µM
TGI [57]: > 100 µM
TGI [25]: > 100 µM
TGI [26]: > 100 µM
TGI [27]: 9.13 µM
TGI [28]: 73.8 µM
TGI [58]: > 100 µM
TGI [59]: > 100 µM
TGI [29]: > 100 µM
TGI [30]: > 100 µM
TGI [31]: 49.6 µM
TGI [32]: 87.4 µM
TGI [33]: > 100 µM

COc1cc(OCCN(C)C)c2[nH]c(C(=O)N3CC(CCl)c4c3cc(N)c3ccccc43)cc2c1 (stereo not given)
TGI [34]: < 0.01 µM
TGI [1]: < 0.01 µM
TGI [3]: 0.379 µM
TGI [5]: > 100 µM
TGI [36]: 0.0102 µM
TGI [37]: 1.08 µM
TGI [6]: 0.0521 µM
TGI [7]: < 0.01 µM
TGI [8]: 1.32 µM
TGI [39]: < 0.01 µM
TGI [10]: < 0.01 µM
TGI [44]: < 0.01 µM
TGI [45]: < 0.01 µM
TGI [47]: 0.011 µM
TGI [12]: 1.17 µM
TGI [14]: < 0.01 µM
TGI [16]: 0.0311 µM
TGI [17]: < 0.01 µM
TGI [48]: < 0.01 µM
TGI [19]: 0.0498 µM
TGI [49]: < 0.01 µM
TGI [50]: 0.213 µM
TGI [51]: 0.736 µM
TGI [52]: < 0.01 µM
TGI [53]: 0.017 µM
TGI [55]: < 0.01 µM
TGI [57]: 1.32 µM
TGI [27]: 0.02 µM
TGI [58]: 0.265 µM
TGI [59]: 1.79 µM
TGI [32]: < 0.01 µM
